These results are taken from ChEMBL document CHEMBL3272053, “(exo, exo)-2-Aryltropane-3-carboxylic esters, hypoglycemic agents with accompanying analgesic activity” (J Med Chem, 1978).

Activity calls are given as the source filed them. No cut-off for these calls is given here.

Data set [1] deals with Rattus norvegicus. Briefly: Hypoglycemic activity in Sprague-Dawley rat assessed as reduction of blood glucose level at 9 mg/kg, po measured within 15 mins by glucagon-impaired glucose disposal test relative to control. More on the design: scale not given: the % may be the effect or the level left. In kind it is functional.
Data set [2] relates to Rattus norvegicus. The experiment in a line: Narcotic analgesic activity in fasted Sprague-Dawley rat at 35 mg/kg, po measured at 15 mins by D'Amour-Smith tail-flick test relative to control. The format is functional.
Data set [3] deals with Rattus norvegicus. Briefly: Narcotic analgesic activity in fasted Sprague-Dawley rat at 35 mg/kg, po measured at 30 mins by D'Amour-Smith tail-flick test relative to control. The format is functional.
Data set [4] has as its system Rattus norvegicus. Briefly: Narcotic analgesic activity in fasted Sprague-Dawley rat at 35 mg/kg, po measured at 60 mins by D'Amour-Smith tail-flick test relative to control. The format is functional. In general terms: Hot-plate and tail-flick tests time the reaction to a heat stimulus.
For data set [5], the system named is Mus musculus. The experiment in a line: Analgesic activity in sc dosed Swiss-Webster mouse assessed as reduction of acetylcholine-induced writhing. In kind it is functional. The note with it: Mus musculus, Swiss-Webster, sc; read-out: ED50. (In general: Writhing tests count abdominal constrictions after an irritant is injected.)
Data set [6] concerns Rattus norvegicus. The experiment in a line: Toxicity in Sprague-Dawley rat assessed as convulsion at 35 mg/kg, po. The format is organism-based. Also noted: dose 35 mg/kg, route oral. The note with it: in vivo.
The subject of data set [7] is Mus musculus. Briefly: Toxicity in Swiss-Webster mouse assessed as mortality at 75 mg/kg, sc. The format is organism-based. Also noted: dose 75 mg/kg, route subcutaneous. The conditions noted are these: in vivo.
In data set [8] the test system is Rattus norvegicus. The experiment in a line: Hypoglycemic activity in Sprague-Dawley rat assessed as reduction of blood glucose level at 9 mg/kg, po by glucagon-impaired glucose disposal test in presence of microsomal enzyme inhibitor SKF 525-A. In kind it is functional, organism-based. More on the design: dose 9 mg/kg.
The test system of data set [9] is Rattus norvegicus. Briefly: Hypoglycemic activity in Sprague-Dawley rat assessed as reduction of blood glucose level at 9 mg/kg, po measured < 90 mins by glucagon-impaired glucose disposal test. The format is functional, organism-based. More on the design: dose 9 mg/kg.
For data set [10], the system named is Rattus norvegicus. The experiment in a line: Narcotic analgesic activity in po dosed fasted Sprague-Dawley rat measured at 60 mins by D'Amour-Smith tail-flick test. The note with it: Rattus norvegicus, Sprague-Dawley, Tail, po, 1 h; read-out: ED50. The format is functional.
Data set [11] relates to Mus musculus. Briefly: Analgesic activity in po dosed Swiss-Webster mouse assessed as reduction of acetylcholine-induced writhing. The format is functional.
Data set [12] deals with Rattus norvegicus. Briefly: Analgesic activity in po dosed rat assessed as reduction of intraarterial bradykinin-induced pain response measured up to 120 mins. The conditions noted are these: 2 h. In kind it is functional.
Data set [13] has as its system Rattus norvegicus. Briefly: Hypoglycemic activity in glucose/glycogen loaded Sprague-Dawley rat assessed as reduction of blood glucose level at 87 mg/kg, po. In kind it is functional, organism-based. More on the design: dose 87 mg/kg.
The subject of data set [14] is Rattus norvegicus. The experiment in a line: Hypoglycemic activity in Sprague-Dawley rat assessed as reduction of blood glucose level at 64 mg/kg, po by glucagon-impaired glucose disposal test relative to control. The format is functional. Also noted: scale not given: the % may be the effect or the level left.
Data set [15] deals with Rattus norvegicus. The experiment in a line: Narcotic analgesic activity in fed Sprague-Dawley rat at 60 mg/kg, sc measured at 30 mins by D'Amour-Smith tail-flick test. The format is functional. The conditions noted are these: route subcutaneous.
For data set [16], the system named is Rattus norvegicus. Briefly: Toxicity in Sprague-Dawley rat assessed as hyperactivity at 2.5 mg/kg, sc. The format is organism-based. The conditions noted are these: in vivo. More on the design: dose 2.5 mg/kg, route subcutaneous.
Data set [17] concerns Rattus norvegicus. The experiment in a line: Toxicity in Sprague-Dawley rat assessed as tremor at 60 mg/kg, sc. The format is organism-based. More on the design: dose 60 mg/kg, route subcutaneous. The conditions noted are these: in vivo.
For data set [18], the system named is Rattus norvegicus. Briefly: Toxicity in Sprague-Dawley rat assessed as convulsion at 60 mg/kg, sc. The format is organism-based. More on the design: dose 60 mg/kg, route subcutaneous. The note with it: in vivo.
In data set [19] the test system is Rattus norvegicus. Briefly: Narcotic antagonist activity in sc dosed fed Sprague-Dawley rat assessed as concentration required to decrease phenazocine-induced analgesic activity by 50%. In kind it is functional.
In data set [20] the test system is Rattus norvegicus. Briefly: Narcotic analgesic activity in fed Sprague-Dawley rat at 120 mg/kg, sc measured at 30 mins by D'Amour-Smith tail-flick test. In kind it is functional. The note with it: route subcutaneous.
Data set [21] concerns Rattus norvegicus. Briefly: Toxicity in Sprague-Dawley rat assessed as tremor at 30 mg/kg, sc. In kind it is organism-based. More on the design: dose 30 mg/kg, route subcutaneous. The conditions noted are these: in vivo.
Data set [22] relates to Rattus norvegicus. Briefly: Toxicity in Sprague-Dawley rat assessed as convulsion at 120 mg/kg, sc. The format is organism-based. More on the design: dose 120 mg/kg, route subcutaneous. The conditions noted are these: in vivo.
The subject of data set [23] is Rattus norvegicus. The experiment in a line: Narcotic antagonist activity in fed Sprague-Dawley rat assessed as decrease in phenazocine-induced analgesic activity at 80 mg/kg, sc. The format is functional.
Data set [24] concerns Rattus norvegicus. Briefly: Narcotic antagonist activity in fed Sprague-Dawley rat assessed as decrease in phenazocine-induced analgesic activity at 1 mg/kg, sc. The format is functional, organism-based. More on the design: dose 1 mg/kg.
Data set [25] has as its system Rattus norvegicus. The experiment in a line: Hypoglycemic activity in Sprague-Dawley rat assessed as reduction of blood glucose level at 87 mg/kg, po by glucagon-impaired glucose disposal test relative to control. More on the design: scale not given: the % may be the effect or the level left. The format is functional.

A word on the ED50: it is the dose at which the effect has come halfway, by size or by number of responders. In the case of `COC(=O)[C@H]1C[C@H]2CC[C@@H]3[C@H]1c1sccc1CN23.Cl`, the Activity in data set [1] was 43%; in [2], 74%; in data set [3] it was 14%; in [4] it was 12%; in [6], “Toxic”; in data set [7], “Toxic”. Moreover, the ED50 in data set [5] stood at 1.5 mg/kg. Moreover, in [8], the outcome was Active. In addition, in [9], the outcome was inactive.
`COC(=O)[C@H]1CCCN(C)[C@H]1c1cccs1` (relative stereo): the ED50 came to 112 mg/kg in data set [10], 3.8 mg/kg in data set [5], 11 mg/kg in data set [11] and 111 mg/kg in data set [12]. The outcome in data set [13] was inactive.
As to `COC(=O)[C@H]1C[C@H]2CC[C@H]([C@H]1c1ccccc1)N2CC1CC1.Cc1ccc(S(=O)(=O)O)cc1`, the Activity in data set [14] was 20%; in [15], <20%; in data set [16], “Toxic”; in data set [17], “Toxic”; in data set [18], “Toxic”; in data set [19] it was 4.7 mg/kg. The ED50 in [5] was 16 mg/kg.
Turning to `CC(=O)[C@H]1C[C@H]2CC[C@H]([C@H]1c1ccccc1)N2C.Cl`, the Activity is recorded as <20% in data set [20], “Toxic” in data set [21], “Toxic” in data set [22] and 32% in data set [25]. Besides, in data set [5], the ED50 was determined as 7 mg/kg. The result in data set [23] and in [24] was Active.
